According to ChEMBL document CHEMBL3399966, “Isosteric replacements of the carboxylic acid of drug candidate VX-787: Effect of charge on antiviral potency and kinase activity of azaindole-based influenza PB2 inhibitors” (Bioorg Med Chem Lett, 2015):

Experiments:
[1] = target: Phosphatidylinositol 4,5-bisphosphate 3-kinase catalytic subunit beta isoform (Homo sapiens, UniProt P42338); experiment: Inhibition of PI3Kbeta (unknown origin)
[2] = target: Phosphatidylinositol 4,5-bisphosphate 3-kinase catalytic subunit alpha isoform (Homo sapiens, UniProt P42336); experiment: Inhibition of PI3Kalpha (unknown origin)
Chain of Phosphatidylinositol 4,5-bisphosphate 3-kinase catalytic subunit alpha isoform (P42336 whole entry, canonical isoform): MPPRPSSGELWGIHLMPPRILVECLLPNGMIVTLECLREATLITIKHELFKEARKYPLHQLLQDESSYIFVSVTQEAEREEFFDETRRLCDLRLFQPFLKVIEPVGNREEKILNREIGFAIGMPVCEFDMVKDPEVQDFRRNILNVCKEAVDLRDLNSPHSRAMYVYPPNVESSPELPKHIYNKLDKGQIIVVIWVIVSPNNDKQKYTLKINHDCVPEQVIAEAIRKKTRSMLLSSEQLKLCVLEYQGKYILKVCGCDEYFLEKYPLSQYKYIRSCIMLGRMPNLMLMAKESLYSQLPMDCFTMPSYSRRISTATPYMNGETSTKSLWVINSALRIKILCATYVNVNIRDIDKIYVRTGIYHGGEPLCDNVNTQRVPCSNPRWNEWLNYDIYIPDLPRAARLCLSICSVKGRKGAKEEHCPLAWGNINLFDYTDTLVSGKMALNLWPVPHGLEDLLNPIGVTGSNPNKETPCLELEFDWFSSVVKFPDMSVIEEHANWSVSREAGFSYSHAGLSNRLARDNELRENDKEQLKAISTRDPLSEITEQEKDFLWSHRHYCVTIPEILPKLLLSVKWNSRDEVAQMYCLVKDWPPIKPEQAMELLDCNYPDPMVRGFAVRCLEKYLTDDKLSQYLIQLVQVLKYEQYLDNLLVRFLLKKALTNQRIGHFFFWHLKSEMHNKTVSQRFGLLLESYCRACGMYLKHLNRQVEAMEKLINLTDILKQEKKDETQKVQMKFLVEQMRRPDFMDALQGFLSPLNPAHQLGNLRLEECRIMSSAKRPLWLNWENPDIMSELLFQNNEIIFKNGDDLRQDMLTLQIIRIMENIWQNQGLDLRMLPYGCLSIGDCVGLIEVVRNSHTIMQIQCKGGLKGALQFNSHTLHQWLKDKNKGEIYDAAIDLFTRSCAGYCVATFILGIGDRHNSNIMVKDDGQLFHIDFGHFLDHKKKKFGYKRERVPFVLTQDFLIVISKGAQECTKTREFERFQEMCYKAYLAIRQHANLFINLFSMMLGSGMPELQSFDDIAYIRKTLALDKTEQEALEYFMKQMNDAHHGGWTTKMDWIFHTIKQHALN

Influenza A virus [3] = experiment: Antiviral activity against Influenza A virus A/PR/8/34 strain incubated with MDCK cells assessed as cell protection after 72 hrs by phenotypic cell protection assay; type: functional, organism-based; details: A/Puerto Rico/8/1934(H1N1)
[4] = target: Proto-oncogene tyrosine-protein kinase Src (Homo sapiens, UniProt P12931); experiment: Inhibition of SRC (unknown origin)
Chain of Proto-oncogene tyrosine-protein kinase Src (P12931 2-536 limits assumed): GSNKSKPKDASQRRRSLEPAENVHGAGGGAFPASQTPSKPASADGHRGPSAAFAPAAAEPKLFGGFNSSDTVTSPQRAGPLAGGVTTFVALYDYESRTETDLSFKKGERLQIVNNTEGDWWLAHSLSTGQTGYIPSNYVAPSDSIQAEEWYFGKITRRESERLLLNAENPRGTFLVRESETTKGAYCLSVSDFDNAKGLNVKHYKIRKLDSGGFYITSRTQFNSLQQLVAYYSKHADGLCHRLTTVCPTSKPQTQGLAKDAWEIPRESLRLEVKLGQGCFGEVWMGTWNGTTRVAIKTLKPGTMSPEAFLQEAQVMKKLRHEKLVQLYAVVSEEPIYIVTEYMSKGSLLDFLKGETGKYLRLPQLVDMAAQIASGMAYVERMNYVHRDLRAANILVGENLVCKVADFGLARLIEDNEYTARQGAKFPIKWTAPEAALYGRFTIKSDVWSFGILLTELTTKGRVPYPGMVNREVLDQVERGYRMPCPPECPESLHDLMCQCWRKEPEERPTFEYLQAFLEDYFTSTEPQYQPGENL

[5] = target: Vascular endothelial growth factor receptor 2 (Homo sapiens, UniProt P35968); experiment: Inhibition of KDR (unknown origin)
[6] = target: cAMP-dependent protein kinase catalytic subunit alpha (Homo sapiens, UniProt P17612); experiment: Inhibition of PKAa (unknown origin)
[7] = Dissociation constant, pKa of the compound by UC titration method; type: physicochemical
[8] = target: Hepatocyte growth factor receptor (Homo sapiens, UniProt P08581); experiment: Inhibition of MET (unknown origin)
[9] = target: Glycogen synthase kinase-3 (Homo sapiens, UniProt P49840+P49841); experiment: Inhibition of GSK3 (unknown origin); type: protein assay
[10] = target: T1, Phosphatidylinositol 4,5-bisphosphate 3-kinase catalytic subunit delta isoform (Homo sapiens, UniProt O00329); experiment: Inhibition of PI3Kdelta (unknown origin)
T1 sequence (O00329 whole entry): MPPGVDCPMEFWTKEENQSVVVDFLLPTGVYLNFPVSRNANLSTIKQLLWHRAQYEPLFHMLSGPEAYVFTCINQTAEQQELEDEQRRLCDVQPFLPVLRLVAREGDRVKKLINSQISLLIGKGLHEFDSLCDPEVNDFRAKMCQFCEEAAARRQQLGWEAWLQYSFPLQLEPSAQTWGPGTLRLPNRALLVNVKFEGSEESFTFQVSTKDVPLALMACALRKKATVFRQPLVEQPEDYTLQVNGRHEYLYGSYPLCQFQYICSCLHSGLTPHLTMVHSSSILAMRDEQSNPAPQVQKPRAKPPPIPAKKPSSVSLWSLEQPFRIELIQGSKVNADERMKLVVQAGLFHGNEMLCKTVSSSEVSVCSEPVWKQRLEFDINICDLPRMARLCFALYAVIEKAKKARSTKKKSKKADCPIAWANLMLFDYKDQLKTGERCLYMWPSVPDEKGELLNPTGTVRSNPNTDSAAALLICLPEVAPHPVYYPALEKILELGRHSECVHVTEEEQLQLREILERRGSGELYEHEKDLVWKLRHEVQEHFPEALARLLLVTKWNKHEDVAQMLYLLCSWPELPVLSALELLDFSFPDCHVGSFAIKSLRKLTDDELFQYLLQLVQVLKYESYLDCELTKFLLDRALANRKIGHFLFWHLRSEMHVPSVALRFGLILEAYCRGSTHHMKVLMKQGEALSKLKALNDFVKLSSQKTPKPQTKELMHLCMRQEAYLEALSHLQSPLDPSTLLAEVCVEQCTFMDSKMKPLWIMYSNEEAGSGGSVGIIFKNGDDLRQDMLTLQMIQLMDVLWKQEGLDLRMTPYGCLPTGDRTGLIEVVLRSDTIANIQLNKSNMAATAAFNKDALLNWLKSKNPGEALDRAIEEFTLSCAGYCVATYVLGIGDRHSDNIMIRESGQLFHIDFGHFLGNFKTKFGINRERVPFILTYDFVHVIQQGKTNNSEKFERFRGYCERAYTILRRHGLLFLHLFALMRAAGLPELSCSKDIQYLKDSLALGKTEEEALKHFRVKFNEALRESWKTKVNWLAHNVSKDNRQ

[11] = target: Tyrosine-protein kinase JAK2 (Homo sapiens, UniProt O60674); experiment: Inhibition of JAK2 (unknown origin)
Chain of Tyrosine-protein kinase JAK2 (O60674 whole entry): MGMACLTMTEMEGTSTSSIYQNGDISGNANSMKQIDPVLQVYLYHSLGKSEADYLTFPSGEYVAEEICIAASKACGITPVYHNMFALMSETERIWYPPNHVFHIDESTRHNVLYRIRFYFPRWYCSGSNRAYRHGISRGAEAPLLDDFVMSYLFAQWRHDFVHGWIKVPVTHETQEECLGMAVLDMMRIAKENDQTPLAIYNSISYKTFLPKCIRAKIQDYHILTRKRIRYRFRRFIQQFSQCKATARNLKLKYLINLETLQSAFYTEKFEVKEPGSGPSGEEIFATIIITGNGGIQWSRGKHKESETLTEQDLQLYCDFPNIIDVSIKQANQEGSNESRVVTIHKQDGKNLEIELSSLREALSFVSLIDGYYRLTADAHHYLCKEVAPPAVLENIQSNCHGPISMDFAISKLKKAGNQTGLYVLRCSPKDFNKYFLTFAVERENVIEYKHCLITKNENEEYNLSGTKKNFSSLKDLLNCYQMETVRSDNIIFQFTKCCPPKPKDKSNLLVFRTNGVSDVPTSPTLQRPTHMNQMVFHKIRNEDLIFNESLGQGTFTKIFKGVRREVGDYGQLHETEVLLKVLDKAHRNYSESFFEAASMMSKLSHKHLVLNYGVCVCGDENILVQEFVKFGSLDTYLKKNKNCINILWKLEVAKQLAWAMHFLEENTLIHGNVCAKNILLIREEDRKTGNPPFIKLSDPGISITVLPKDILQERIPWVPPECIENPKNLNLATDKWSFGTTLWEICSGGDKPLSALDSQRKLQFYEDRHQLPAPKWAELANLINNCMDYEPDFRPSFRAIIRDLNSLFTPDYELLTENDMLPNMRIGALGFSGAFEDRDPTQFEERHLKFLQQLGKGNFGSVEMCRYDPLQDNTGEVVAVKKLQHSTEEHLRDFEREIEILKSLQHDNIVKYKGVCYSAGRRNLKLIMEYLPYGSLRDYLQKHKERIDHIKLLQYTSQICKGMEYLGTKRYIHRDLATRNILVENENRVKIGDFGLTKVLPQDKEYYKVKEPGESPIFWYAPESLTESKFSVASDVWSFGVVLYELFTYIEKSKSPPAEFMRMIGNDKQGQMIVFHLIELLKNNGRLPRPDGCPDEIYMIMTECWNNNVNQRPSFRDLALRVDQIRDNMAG

[12] = target: T2, Interleukin-1 receptor-associated kinase 4 (Homo sapiens, UniProt Q9NWZ3); experiment: Inhibition of IRAK4 (unknown origin)
T2 sequence (Q9NWZ3 whole entry): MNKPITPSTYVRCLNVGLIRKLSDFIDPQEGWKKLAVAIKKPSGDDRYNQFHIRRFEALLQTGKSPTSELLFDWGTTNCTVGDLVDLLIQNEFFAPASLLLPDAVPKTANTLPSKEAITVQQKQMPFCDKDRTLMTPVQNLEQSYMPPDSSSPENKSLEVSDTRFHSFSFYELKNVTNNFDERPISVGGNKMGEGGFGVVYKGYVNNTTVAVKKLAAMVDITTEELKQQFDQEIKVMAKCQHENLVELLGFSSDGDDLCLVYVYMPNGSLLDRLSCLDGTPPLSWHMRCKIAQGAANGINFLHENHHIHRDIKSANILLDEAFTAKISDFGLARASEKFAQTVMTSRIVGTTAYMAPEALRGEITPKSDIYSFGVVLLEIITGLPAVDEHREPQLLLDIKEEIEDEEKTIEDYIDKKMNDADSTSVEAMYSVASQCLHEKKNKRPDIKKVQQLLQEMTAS

[13] = target: Cyclin-dependent kinase 2 (Homo sapiens, UniProt P24941); experiment: Inhibition of CDK2 (unknown origin)
[14] = target: Serine/threonine-protein kinase PLK1 (Homo sapiens, UniProt P53350); experiment: Inhibition of PLK (unknown origin)
Chain of Serine/threonine-protein kinase PLK1 (P53350 whole entry): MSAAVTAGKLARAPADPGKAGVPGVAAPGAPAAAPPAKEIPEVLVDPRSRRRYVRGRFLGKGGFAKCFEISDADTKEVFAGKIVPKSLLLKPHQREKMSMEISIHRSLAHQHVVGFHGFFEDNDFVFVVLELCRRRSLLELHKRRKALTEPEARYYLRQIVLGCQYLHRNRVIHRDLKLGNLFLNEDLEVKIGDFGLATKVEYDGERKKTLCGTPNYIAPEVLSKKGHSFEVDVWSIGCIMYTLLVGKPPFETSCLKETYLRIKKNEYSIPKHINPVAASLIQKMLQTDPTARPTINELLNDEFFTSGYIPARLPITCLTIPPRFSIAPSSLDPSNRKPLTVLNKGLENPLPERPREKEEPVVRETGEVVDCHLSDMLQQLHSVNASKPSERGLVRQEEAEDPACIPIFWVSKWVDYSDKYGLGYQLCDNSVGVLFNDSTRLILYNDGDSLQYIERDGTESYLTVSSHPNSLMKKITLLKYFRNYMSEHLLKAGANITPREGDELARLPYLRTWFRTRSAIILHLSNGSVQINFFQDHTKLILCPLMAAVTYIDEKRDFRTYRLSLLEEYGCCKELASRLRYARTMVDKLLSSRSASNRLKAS

[15] = target: Tyrosine-protein kinase SYK (Homo sapiens, UniProt P43405); experiment: Inhibition of SYK (unknown origin)
[16] = target: T3, Receptor-type tyrosine-protein kinase FLT3 (Homo sapiens, UniProt P36888); experiment: Inhibition of FLT3 (unknown origin)
T3 sequence (P36888 whole entry): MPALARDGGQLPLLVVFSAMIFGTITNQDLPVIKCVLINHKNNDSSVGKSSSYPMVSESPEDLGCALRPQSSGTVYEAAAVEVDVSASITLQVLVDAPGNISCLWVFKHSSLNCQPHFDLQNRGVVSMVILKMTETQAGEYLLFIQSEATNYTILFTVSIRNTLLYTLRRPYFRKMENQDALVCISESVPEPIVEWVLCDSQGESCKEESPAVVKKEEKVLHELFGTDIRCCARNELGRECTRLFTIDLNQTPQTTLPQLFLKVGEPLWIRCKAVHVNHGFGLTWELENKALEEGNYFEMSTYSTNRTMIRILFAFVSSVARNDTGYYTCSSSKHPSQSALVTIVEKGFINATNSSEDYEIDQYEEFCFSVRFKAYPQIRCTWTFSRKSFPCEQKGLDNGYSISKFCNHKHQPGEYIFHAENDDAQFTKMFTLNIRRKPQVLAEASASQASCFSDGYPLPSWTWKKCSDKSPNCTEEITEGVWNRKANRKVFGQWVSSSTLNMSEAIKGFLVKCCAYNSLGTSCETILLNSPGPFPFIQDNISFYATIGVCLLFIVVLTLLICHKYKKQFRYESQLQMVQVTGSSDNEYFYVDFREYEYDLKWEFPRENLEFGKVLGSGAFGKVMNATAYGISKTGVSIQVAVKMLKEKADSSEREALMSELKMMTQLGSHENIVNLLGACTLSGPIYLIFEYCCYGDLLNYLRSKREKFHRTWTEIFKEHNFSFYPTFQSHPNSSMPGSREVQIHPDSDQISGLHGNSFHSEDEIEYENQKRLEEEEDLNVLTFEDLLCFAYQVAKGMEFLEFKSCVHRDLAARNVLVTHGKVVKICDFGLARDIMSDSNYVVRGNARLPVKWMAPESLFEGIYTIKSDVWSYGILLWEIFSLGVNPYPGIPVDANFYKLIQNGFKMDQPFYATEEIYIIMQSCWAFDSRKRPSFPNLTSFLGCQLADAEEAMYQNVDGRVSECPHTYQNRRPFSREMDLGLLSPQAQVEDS

[17] = target: Mitogen-activated protein kinase 10 (Homo sapiens, UniProt P53779); experiment: Inhibition of JNK3 (unknown origin)
Chain of Mitogen-activated protein kinase 10 (P53779 whole entry): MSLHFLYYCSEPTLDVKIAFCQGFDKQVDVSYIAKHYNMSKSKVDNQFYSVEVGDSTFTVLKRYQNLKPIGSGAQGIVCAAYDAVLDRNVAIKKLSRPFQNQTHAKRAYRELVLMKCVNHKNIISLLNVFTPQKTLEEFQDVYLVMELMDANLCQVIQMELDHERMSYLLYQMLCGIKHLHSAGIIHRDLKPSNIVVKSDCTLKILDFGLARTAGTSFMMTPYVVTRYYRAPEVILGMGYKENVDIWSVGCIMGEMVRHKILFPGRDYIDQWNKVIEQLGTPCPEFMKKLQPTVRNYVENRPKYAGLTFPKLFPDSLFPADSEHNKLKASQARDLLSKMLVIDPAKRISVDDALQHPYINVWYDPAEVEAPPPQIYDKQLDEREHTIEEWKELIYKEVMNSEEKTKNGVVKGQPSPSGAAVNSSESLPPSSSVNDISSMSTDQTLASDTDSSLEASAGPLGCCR

Influenza A virus [18] = experiment: Antiviral activity against influenza A virus A/PR/8/34 strain incubated with MDCK cells assessed as reduction of viral RNA level equal to 1% of control level after 72 hrs by branched DNA assay; type: functional, organism-based; details: A/Puerto Rico/8/1934(H1N1)
[19] = target: Rho-associated protein kinase (Homo sapiens, UniProt O75116+Q13464); experiment: Inhibition of ROCK (unknown origin); type: protein-complex assay
[20] = target: Phosphatidylinositol 4,5-bisphosphate 3-kinase catalytic subunit gamma isoform (Homo sapiens, UniProt P48736); experiment: Inhibition of PI3Kgamma (unknown origin)
Chain of Phosphatidylinositol 4,5-bisphosphate 3-kinase catalytic subunit gamma isoform (P48736 whole entry, canonical isoform): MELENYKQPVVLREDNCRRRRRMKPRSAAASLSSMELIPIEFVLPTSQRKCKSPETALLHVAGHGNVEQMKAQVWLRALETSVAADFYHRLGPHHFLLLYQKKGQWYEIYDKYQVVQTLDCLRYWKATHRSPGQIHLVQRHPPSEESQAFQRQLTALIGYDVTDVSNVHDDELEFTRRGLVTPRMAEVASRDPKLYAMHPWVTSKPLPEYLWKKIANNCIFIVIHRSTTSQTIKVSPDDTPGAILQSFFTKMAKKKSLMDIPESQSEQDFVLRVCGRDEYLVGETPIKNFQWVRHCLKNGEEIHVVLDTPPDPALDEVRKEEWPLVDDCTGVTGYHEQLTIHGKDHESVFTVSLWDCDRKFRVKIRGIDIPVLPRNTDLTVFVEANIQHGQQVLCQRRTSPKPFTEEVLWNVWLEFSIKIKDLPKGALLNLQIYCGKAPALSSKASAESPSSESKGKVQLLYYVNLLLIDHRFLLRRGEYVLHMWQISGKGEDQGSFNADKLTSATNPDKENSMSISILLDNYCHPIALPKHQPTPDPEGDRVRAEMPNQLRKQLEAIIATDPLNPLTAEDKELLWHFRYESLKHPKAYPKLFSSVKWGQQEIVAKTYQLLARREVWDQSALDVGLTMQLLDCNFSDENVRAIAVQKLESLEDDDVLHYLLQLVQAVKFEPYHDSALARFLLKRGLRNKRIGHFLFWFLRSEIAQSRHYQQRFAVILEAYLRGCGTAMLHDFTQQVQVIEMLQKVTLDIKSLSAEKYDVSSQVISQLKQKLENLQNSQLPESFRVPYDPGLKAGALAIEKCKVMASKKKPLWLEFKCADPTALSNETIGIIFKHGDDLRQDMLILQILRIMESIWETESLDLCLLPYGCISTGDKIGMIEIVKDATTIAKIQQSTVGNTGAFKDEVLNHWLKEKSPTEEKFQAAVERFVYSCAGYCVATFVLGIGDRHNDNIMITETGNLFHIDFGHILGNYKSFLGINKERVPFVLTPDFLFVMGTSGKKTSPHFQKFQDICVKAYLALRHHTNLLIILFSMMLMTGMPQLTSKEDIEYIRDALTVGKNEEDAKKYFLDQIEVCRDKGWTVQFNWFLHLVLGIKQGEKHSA

Q: Which results are given for `O=c1[nH]c(=O)n(C[C@H]2C3CCC(CC3)[C@@H]2Nc2nc(-c3c[nH]c4ncc(F)cc34)ncc2F)o1` (mixture of isomers)?
A: Ki [1]: 2 µM; Ki [2]: 1.5 µM; IC50 (Influenza A virus [3]): 0.048 µM; Ki [4]: > 4 µM; Ki [5]: > 4 µM; Ki [6]: > 4 µM; pKa [7]: 5.2; Ki [8]: > 4 µM; Ki [9]: 0.023 µM; Ki [10]: 0.18 µM; Ki [11]: 0.27 µM; Ki [12]: > 4 µM; Ki [13]: > 4 µM; Ki [14]: 1.1 µM; Ki [15]: > 4 µM; Ki [16]: 0.21 µM; Ki [17]: > 4 µM; EC50 (Influenza A virus [18]): 0.036 µM; EC99 (Influenza A virus [18]): 0.21 µM; Ki [19]: > 4 µM; Ki [20]: 0.63 µM
